Data on 71 compounds can be found in patent publication US9510598B2, “Nitrogen-containing heterocyclic compounds for plant disease control” (BAYER CROPSCIENCE AG, priority 2012, dated 2016).

One data set is classed as physicochemical. The conditions noted are these: HPLC on reversed phase columns, method [a]: pH 2.7, 0.1% formic acid in water / acetonitrile, linear gradient 10% to 95% acetonitrile.
In the case of `Cc1nn(C2CC2)cc1CNC(=O)C1(C)CC(c2ccc3ncc(Br)cc3c2)=NO1` (centres unmarked) [compound 669], the “log P” value was 2.52[a].

For the compound `COc1ccncc1CNC(=O)C1(C)CC(c2ccc3ncc(Br)cc3c2)=NO1` (centres unmarked) [compound 670], the “log P” value was 1.40[a]. For `COc1cc(CNC(=O)C2(C)CC(c3ccc4ncc(Br)cc4c3)=NO2)ccn1` (centres unmarked) [compound 671], the “log P” value is 2.54[a]. For the compound `C#Cc1cnc2ccc(C3=NOC(C)(C(=O)NCc4cnccc4OC)C3)cc2c1` (centres unmarked) [compound 672], the “log P” value was 1.27[a]. Take `COc1cnccc1CNC(=O)C1(C)CC(c2ccc3ncc(Br)cc3c2)=NO1` (centres unmarked) [compound 673]: the “log P” value was 1.56[a]. For the compound `C#Cc1cnc2ccc(C3=NOC(C)(C(=O)NCc4ccnc(OC)c4)C3)cc2c1` (centres unmarked) [compound 674], the “log P” value was 2.26[a]. On the same count and under the same terms, the same measure for `COc1ccc(CNC(=O)C2(C)CC(c3ccc4ncc(Br)cc4c3)=NO2)nn1` (centres unmarked) [compound 675]: 2.28[a]. Same read-out and setting: the same measure for `C#Cc1cnc2ccc(C3=NOC(C)(C(=O)NCc4ccncc4OC)C3)cc2c1` (centres unmarked) [compound 676]: 1.40[a]. As to `C#Cc1cnc2ccc(C3=NOC(C)(C(=O)NCc4cc(OC)ccn4)C3)cc2c1` (centres unmarked) [compound 677], the “log P” value was 1.34[a]. The same measure, in the same setting: the same measure for `COc1ncccc1CNC(=O)C1(C)CC(c2ccc3ncc(Br)cc3c2)=NO1` (centres unmarked) [compound 678]: 2.82[a]; for `COc1ccc(CNC(=O)C2(C)CC(c3ccc4ncc(Br)cc4c3)=NO2)cn1` (centres unmarked) [compound 679]: 2.66[a].

Staying with this data set, now noted: HPLC on reversed phase columns, method [a]: pH 2.7, 0.1% formic acid in water and acetonitrile, linear gradient 10% to 95% acetonitrile.
As for `C#Cc1cnc2ccc(C3=NOC(C)(C(=O)NCc4cccnc4OC)C3)cc2c1` (centres unmarked) [compound 680], the “log P” value was 2.52[a].

`C#Cc1cnc2ccc(C3=NOC(C)(C(=O)NCc4ccc(OC)nc4)C3)cc2c1` (centres unmarked) [compound 681]: the “log P” value was 2.37[a]. As to `C#Cc1cnc2ccc(C3=NOC(C)(C(=O)NCc4cnccc4C)C3)cc2c1` (centres unmarked) [compound 682], the “log P” value is 1.29[a]. On the same count and under the same terms, under `C#Cc1cnc2ccc(C3=NOC(C)(C(=O)NCc4ccncc4C)C3)cc2c1` (centres unmarked) [compound 683] stands 1.29[a]; under `Cc1cc(CNC(=O)C2(C)CC(c3ccc4ncc(Br)cc4c3)=NO2)ccn1` (centres unmarked) [compound 684], 1.40[a]; under `C#Cc1cnc2ccc(C3=NOC(C)(C(=O)NCc4ccnc(C)c4)C3)cc2c1` (centres unmarked) [compound 685], 1.27[a].

For `CC(C)c1cccc(CNC(=O)C2(C)CC(c3ccc4ncc(Br)cc4c3)=NO2)n1` (centres unmarked) [compound 686], the “log P” value is 2.33[a]. Turning to `C#Cc1cnc2ccc(C3=NOC(C)(C(=O)NCc4ccc(OC)nn4)C3)cc2c1` (centres unmarked) [compound 687], the “log P” value was 2.05[a]. As for `COc1ncc(CNC(=O)C2(C)CC(c3ccc4ncc(Br)cc4c3)=NO2)cn1` (centres unmarked) [compound 688], the “log P” value was 2.25[a]. In the case of `C#Cc1cnc2ccc(C3=NOC(C)(C(=O)NCc4cnc(OC)nc4)C3)cc2c1` (centres unmarked) [compound 689], the “log P” value is 2.01[a]. Regarding `Cc1cccc(CNC(=O)C2(C)CC(c3ccc4ncc(Br)cc4c3)=NO2)n1` (centres unmarked) [compound 690], the “log P” value was 1.60[a]. For the compound `C#Cc1cnc2ccc(C3=NOC(C)(C(=O)NCc4cccc(C)n4)C3)cc2c1` (centres unmarked) [compound 691], the “log P” value was 1.43[a]. For the compound `CC1(C(=O)NCc2cncnc2)CC(c2ccc3ncc(Br)cc3c2)=NO1` (centres unmarked) [compound 692], the “log P” value was 1.95[a]. As for `Cc1ccncc1CNC(=O)C1(C)CC(c2ccc3ncc(Br)cc3c2)=NO1` (centres unmarked) [compound 693], the “log P” value was 1.43[a]. `CCn1cc(NC(=O)C2(C)CC(c3ccc4ncc(Br)cc4c3)=NO2)cn1` (centres unmarked) [compound 694]: the “log P” value was 2.45[a]. In the case of `Cc1cnccc1CNC(=O)C1(C)CC(c2ccc3ncc(Br)cc3c2)=NO1` (centres unmarked) [compound 695], the “log P” value was 1.46[a].

For the compound `C#Cc1cnc2ccc(C3=NOC(C)(C(=O)NCc4cncc(OC)c4)C3)cc2c1` (centres unmarked) [compound 696], the “log P” value was 1.59[a]. Regarding `C#Cc1cnc2ccc(C3=NOC(C)(C(=O)NCc4cncnc4)C3)cc2c1` (centres unmarked) [compound 697], the “log P” value is 1.74[a].

With `COc1cncc(CNC(=O)C2(C)CC(c3ccc4ncc(Br)cc4c3)=NO2)c1` (centres unmarked) [compound 698], the “log P” value is 1.78[a]. In the case of `C#Cc1cnc2ccc(C3=NOC(C)(C(=O)Nc4cnn(CC)c4)C3)cc2c1` (centres unmarked) [compound 699], the “log P” value is 2.17[a]. Same read-out and setting: under `C#CC1(C(=O)NCc2cn(CCC)nc2C)CC(c2ccc3ncc(Br)cc3c2)=NO1` (centres unmarked) [compound 700] stands 2.78[a]. On the same count and under the same terms, the same measure for `C#Cc1cnc2ccc(C3=NOC(C)(C(=O)NC(C)CN(C)C)C3)cc2c1` (centres unmarked) [compound 701]: 1.42[a]; for `COC1(C(=O)NC2CCN(C)CC2)CC(c2ccc3ncc(I)cc3c2)=NO1` (centres unmarked) [compound 702]: 1.67[a]. For `CCn1cc(CNC(=O)C2(C)CC(c3ccc4ncc(Br)cc4c3)=NO2)c(Cl)n1` (centres unmarked) [compound 704], the “log P” value was 2.84[a]. For the compound `C#Cc1cnc2ccc(C3=NOC(OC)(C(=O)NCc4cn(CC)nc4Cl)C3)cc2c1` (centres unmarked) [compound 705], the “log P” value is 2.51[a]. Consider `CC1(C(=O)NCc2cnccn2)CC(c2ccc3ncc(Br)cc3c2)=NO1` (centres unmarked) [compound 706], for which the “log P” value is 2.10[a]. On to `Cn1c(C(=NOCc2cccc(NC(=O)C3(C)CC(c4ccc5ncc(Br)cc5c4)=NO3)n2)c2ccccc2)noc1=O` (centres unmarked) [compound 707], for which the “log P” value was 4.49[a]. Still for that read-out and setting: under `C#Cc1cnc2ccc(C3=NOC(OC)(C(=O)NCc4cnccn4)C3)cc2c1` (centres unmarked) [compound 708] stands 1.85[a].

As for `CCn1cc(CNC(=O)C2(C#N)CC(c3ccc4ncc(Br)cc4c3)=NO2)c(C)n1` (centres unmarked) [compound 709], the “log P” value is 2.51[a]. Consider `CC1(C(=O)NCCC2CC2)CC(c2ccc3ncc(Br)cc3c2)=NO1` (centres unmarked) [compound 710], for which the “log P” value is 3.17[a]. Still for that read-out and setting: the same measure for `COC1(C(=O)Nc2cccc(CON=C(c3ccccc3)c3noc(=O)n3C)n2)CC(c2ccc3ncc(Br)cc3c2)=NO1` (centres unmarked) [compound 711]: 4.39[a]; for `COc1ccc(CCNC(=O)C2(OC)CC(c3ccc4ncc(Br)cc4c3)=NO2)cc1OC` (centres unmarked) [compound 712]: 2.94[a]. Same read-out and setting: under `CC1(C(=O)NCCC2CCCO2)CC(c2ccc3ncc(Br)cc3c2)=NO1` (centres unmarked) [compound 713] stands 2.39[a]; under `C=C(C)CNC(=O)C1(C)CC(c2ccc3ncc(Br)cc3c2)=NO1` (centres unmarked) [compound 715], 2.90[a]; under `CC(C)(C#N)NC(=O)C1(C)CC(c2ccc3ncc(Br)cc3c2)=NO1` (centres unmarked) [compound 716], 2.68[a]. Same read-out and setting: the same measure for `C#CC(CC)(CC)NC(=O)C1(C)CC(c2ccc3ncc(Br)cc3c2)=NO1` (centres unmarked) [compound 717]: 3.96[a]; for `C#CC1(NC(=O)C2(C)CC(c3ccc4ncc(Br)cc4c3)=NO2)CC1` (centres unmarked) [compound 718]: 2.64[a]; for `C#Cc1cnc2ccc(C3=NOC(OC)(C(=O)NCCC4CC4)C3)cc2c1` (centres unmarked) [compound 719]: 2.78[a]. Regarding `CC1(C(=O)NCCC#N)CC(c2ccc3ncc(Br)cc3c2)=NO1` (centres unmarked) [compound 720], the “log P” value is 2.15[a]. The same measure, in the same setting: the same measure for `CCC(C#N)NC(=O)C1(C)CC(c2ccc3ncc(Br)cc3c2)=NO1` (centres unmarked) [compound 721]: 2.75[a]; for `C#CC1(NC(=O)C2(C)CC(c3ccc4ncc(Br)cc4c3)=NO2)COC1` (centres unmarked) [compound 722]: 2.37[a]; for `C/C(=N\O)NC(=O)C1(C)CC(c2ccc3ncc(Br)cc3c2)=NO1` (centres unmarked) [compound 723]: 2.04[a]. Regarding `CCn1cc(CNC(=O)C2(C)CC(c3ccc4ncc(Br)c(Cl)c4c3)=NO2)c(C)n1` (centres unmarked) [compound 735], the “log P” value is 2.69[a]. Still for that read-out and setting: under `CC(C)NC(=O)C1(C)CC(c2ccc3ncc(Br)c(Cl)c3c2)=NO1` (centres unmarked) [compound 736] stands 2.39[a]; under `CC(C)NC(=O)C1(C#N)CC(c2ccc3ncc(Br)cc3c2)=NO1` (centres unmarked) [compound 737], 2.86[a]; under `CC(C)/C(=N\O)NC(=O)C1(C)CC(c2ccc3ncc(Br)cc3c2)=NO1` (centres unmarked) [compound 738], 2.50[a]. As to `CC1(C(=O)N/C(=N/O)C(C)(C)C)CC(c2ccc3ncc(Br)cc3c2)=NO1` (centres unmarked) [compound 739], the “log P” value was 2.88[a]. As for `CC1(C(=O)N/C(=N/O)C2CC2)CC(c2ccc3ncc(Br)cc3c2)=NO1` (centres unmarked) [compound 740], the “log P” value was 2.35[a]. Turning to `CC1(C(=O)N/C(=N/O)c2cccnc2)CC(c2ccc3ncc(Br)cc3c2)=NO1` (centres unmarked) [compound 741], the “log P” value was 2.10[a]. On to `CCC(C)NC(=O)C1(C)CC(c2ccc3ncc(Br)cc3c2)=NO1` (centres unmarked) [compound 742], for which the “log P” value is 3.37[a].

For the compound `CC(C)CNC(=O)C1(C)CC(c2ccc3ncc(Br)cc3c2)=NO1` (centres unmarked) [compound 743], the “log P” value is 3.15[a]. Same read-out and setting: under `CCc1ccc(CNC(=O)C2(C)CC(c3ccc4ncc(Br)cc4c3)=NO2)nc1` (centres unmarked) [compound 744] stands 2.05[a].

With `C#Cc1cnc2ccc(C3=NOC(C)(C(=O)NCc4cc(CC)ccn4)C3)cc2c1` (centres unmarked) [compound 745], the “log P” value is 1.64[a]. As to `CCc1cccc(CNC(=O)C2(C)CC(c3ccc4ncc(Br)cc4c3)=NO2)n1` (centres unmarked) [compound 746], the “log P” value is 1.88[a]. As for `C#Cc1cnc2ccc(C3=NOC(C)(C(=O)NCc4ccc(CC)cn4)C3)cc2c1` (centres unmarked) [compound 747], the “log P” value was 1.82[a]. For the compound `CC1(C(=O)NCc2cc(C#N)ccn2)CC(c2ccc3ncc(Br)cc3c2)=NO1` (centres unmarked) [compound 748], the “log P” value was 2.48[a]. Still for that read-out and setting: under `C#Cc1cnc2ccc(C3=NOC(C)(C(=O)NCc4cccc(CC)n4)C3)cc2c1` (centres unmarked) [compound 749] stands 1.67[a]; under `CC(C)c1ccnc(CNC(=O)C2(C)CC(c3ccc4ncc(Br)cc4c3)=NO2)c1` (centres unmarked) [compound 750], 2.05[a]; under `C#Cc1cnc2ccc(C3=NOC(C)(C(=O)NCc4cc(C#N)ccn4)C3)cc2c1` (centres unmarked) [compound 751], 2.20[a]. On the same count and under the same terms, the same measure for `CCc1ccnc(CNC(=O)C2(C)CC(c3ccc4ncc(Br)cc4c3)=NO2)c1` (centres unmarked) [compound 752]: 1.82[a].
